Assay results published in the NIST ThermoML archive (doi:10.1021/je049788h).
Numbers after ± are expanded uncertainties.

Test: xn = mol fraction of the nth substance listed
Conditions: 101.3 kPa, Liquid; for viscosity: Capillary tube (Ostwald / Ubbelohde) method; for mass density: Vibrating tube method

COCCOCCOCCOCCOC [2,5,8,11,14-pentaoxapentadecane] + O
Conditions | mass density, 298.15 K [kg/m3] | mass density, 313.15 K [kg/m3] | mass density, 323.15 K [kg/m3] | mass density, 333.15 K [kg/m3] | mass density, 343.15 K [kg/m3] | viscosity, 298.15 K [mPa·s] | viscosity, 313.15 K [mPa·s] | viscosity, 323.15 K [mPa·s] | viscosity, 333.15 K [mPa·s] | viscosity, 343.15 K [mPa·s]
x1 = 0.0199 | 1013.95 ± 2.6 | 1006.73 ± 2.6 | 1001.25 ± 2.6 | 995.13 ± 2.6 | 988.58 ± 2.6 | 3.11 ± 0.09 | 2.11 ± 0.06 | 1.71 ± 0.05 | 1.41 ± 0.04 | 1.18 ± 0.03
x1 = 0.051 | 1020.21 ± 2.6 | 1011.89 ± 2.5 | 1005.7 ± 2.5 | 999.35 ± 2.5 | 991.92 ± 2.5 | 4.04 ± 0.11 | 2.64 ± 0.07 | 2.12 ± 0.06 | 1.69 ± 0.05 | 1.41 ± 0.04
x1 = 0.1066 | 1038.9 ± 2.5 | 1025.7 ± 2.5 | 1016.67 ± 2.4 | 1007.47 ± 2.4 | 998.09 ± 2.4 | 6.17 ± 0.16 | 3.62 ± 0.1 | 2.7 ± 0.07 | 2.08 ± 0.05 | 1.67 ± 0.04
x1 = 0.195 | 1033.66 ± 2.3 | 1019.8 ± 2.2 | 1010.4 ± 2.2 | 1000.92 ± 2.2 | 991.28 ± 2.2 | 6.22 ± 0.15 | 3.77 ± 0.09 | 2.86 ± 0.07 | 2.24 ± 0.05 | 1.8 ± 0.04
x1 = 0.3008 | 1026.07 ± 2 | 1012.12 ± 2 | 1002.75 ± 2 | 993.27 ± 2 | 983.67 ± 1.9 | 5.29 ± 0.12 | 3.39 ± 0.08 | 2.63 ± 0.06 | 2.12 ± 0.05 | 1.73 ± 0.04
x1 = 0.4088 | 1020.42 ± 1.8 | 1006.46 ± 1.8 | 997.07 ± 1.7 | 987.6 ± 1.7 | 978.07 ± 1.7 | 4.59 ± 0.1 | 3.08 ± 0.06 | 2.42 ± 0.05 | 1.97 ± 0.04 | 1.65 ± 0.03
x1 = 0.5116 | 1016.56 ± 1.6 | 1002.6 ± 1.5 | 993.21 ± 1.5 | 983.77 ± 1.5 | 974.27 ± 1.5 | 4.14 ± 0.08 | 2.82 ± 0.05 | 2.26 ± 0.04 | 1.86 ± 0.04 | 1.56 ± 0.03
x1 = 0.6252 | 1013.52 ± 1.3 | 999.55 ± 1.3 | 990.2 ± 1.3 | 980.79 ± 1.3 | 971.34 ± 1.2 | 3.81 ± 0.07 | 2.65 ± 0.05 | 2.15 ± 0.04 | 1.78 ± 0.03 | 1.51 ± 0.03
x1 = 0.7016 | 1011.64 ± 1.1 | 997.66 ± 1.1 | 988.33 ± 1.1 | 978.95 ± 1.1 | 969.56 ± 1.1 | 3.65 ± 0.06 | 2.57 ± 0.04 | 2.1 ± 0.03 | 1.75 ± 0.03 | 1.5 ± 0.02
x1 = 0.8037 | 1009.81 ± 0.92 | 995.86 ± 0.91 | 985.65 ± 0.9 | 977.24 ± 0.89 | 967.88 ± 0.88 | 3.51 ± 0.05 | 2.49 ± 0.04 | 2.06 ± 0.031 | 1.73 ± 0.03 | 1.47 ± 0.02
x1 = 0.9044 | 1008.44 ± 0.71 | 994.51 ± 0.7 | 985.23 ± 0.69 | 975.95 ± 0.69 | 966.66 ± 0.68 | 3.41 ± 0.05 | 2.44 ± 0.03 | 2.01 ± 0.028 | 1.69 ± 0.02 | 1.45 ± 0.02
x1 = 0.9505 | 1007.83 ± 0.62 | 993.92 ± 0.61 | 984.67 ± 0.6 | 975.4 ± 0.6 | 966.13 ± 0.59 | 3.37 ± 0.05 | 2.42 ± 0.03 | 2.002 ± 0.027 | 1.69 ± 0.02 | 1.41 ± 0.02
x1 = 1 | 1006.65 ± 0.51 | 993.28 ± 0.51 | 984.05 ± 0.5 | 974.8 ± 0.5 | 965.55 ± 0.49 | 3.38 ± 0.04 | 2.42 ± 0.03 | 2.004 ± 0.026 | 1.69 ± 0.02 | 1.42 ± 0.02
